Columns and labels:
[1] = target: T1, Recombinant His-tagged NAMPT (Homo sapiens, UniProt P43490); test: Biochemical inhibition assay: NAMPT enzymatic reaction, NMN quantified by mass spectrometry; conditions: 33 nM NAMPT, 1 μM NAM, 100 μM PRPP, 2.5 mM ATP, 30 minutes at room temperature; read-out: Biochem IC50
T1 construct: His; host or cells: E. coli
Method: Biochemical Inhibition Assay
NAMPT Protein Purification
Recombinant His-tagged NAMPT was produced in E. coli cells, purified over a Ni column, and further purified over a size-exclusion column by XTAL Biostructures.
The NAMPT Enzymatic Reaction
The NAMPT enzymatic reactions were carried out in Buffer A (50 mM Hepes pH 7.5, 50 mM NaCl, 5 mM MgCl2, and 1 mM THP) in 96-well V-bottom plates. The compound titrations were performed in a separate dilution plate by serially diluting the compounds in DMSO to make a 100× stock. […] The compound and enzyme mix was incubated for 15 minutes at room temperature, then 10 μL of 10× substrate and co-factors in Buffer A were added to the test well to make a final concentration of 1 μM NAM, 100 μM 5-Phospho-D-ribose 1-diphosphate (PRPP), and 2.5 mM Adenosine 5′-triphosphate (ATP). The reaction was allowed to proceed for 30 minutes at room temperature, then was quenched with the addition of 11 μL of a solution of formic acid and L-Cystathionine to make a final concentration of 1% formic acid and 10 μM L-Cystathionine. Background and signal strength was determined by addition (or non-addition) of a serial dilution of NMN to a pre-quenched enzyme and cofactor mix.
A mass spectrometry-based assay was used to measure the Nampt reaction product (NMN) and the internal control (L-Cystathionine). NMN and L-Cystathionine were detected using the services of Biocius Lifesciences with the RapidFire system. In short, the NMN and L-Cystathionine are bound to a graphitic carbon cartridge in 0.1% formic acid, eluted in 30% acetonitrile buffer, and injected into a Sciex 4000 mass spectrometer. The components of the sample were ionized with electrospray ionization and the positive ions were detected. […] The fragments are quantified and the analyzed by the following method.
First the NMN signal is normalized to the L-Cystathionine signal by dividing the NMN signal by the L-Cystathionine signal for each well. The signal from the background wells are averaged and subtracted from the test plates.
Wherein x denotes the average signal of the compound treated wells and y denotes the average signal of the DMSO treated wells.
IC50s are Determined Using Excel and this Formula.
Wherein X denotes the compound concentration 1, Y denotes the compound concentration 2, XX denotes the % inhibition at compound concentration 1 (X), and YY denotes the % inhibition at compound concentration 2 (Y).

A2780 cells = test: In-vitro cell proliferation assay (SRB, 72 hours); assay type: cell-based; conditions: Homo sapiens, sulforhodamine B (SRB) assay
Method: In-Vitro Cell Proliferation Assay
After overnight incubation at 37° C. and 5% CO2, the compound titrations were performed in a separate dilution plate by serially diluting the compounds in DMSO to make a 1000× stock. The compounds were then further diluted to 10× final concentration in culture media, whereupon 20 μL of each dilution was added to the plated cells with controls (e.g. DMSO and blank) to make a final volume of 200 μL. The final DMSO concentration in each well was 0.1%. The plates were then incubated for 72 hours at 37° C. in a 5% CO2 incubator. The number of viable cells was then assessed using sulforhodamine B (SRB) assay. Cells were fixed at 4° C. for 1 hour with the addition of 50 μL 30% trichloroacetic acid (TCA) to make a final concentration of 6% TCA. The plates were washed four times with H2O and allowed to dry for at least 1 hour, whereupon 100 μL of a 4% SRB in 1% acetic acid solution was added to each well and incubated at room temperature for at least 30 minutes. The plates were then washed three times with 1% acetic acid, dried, and treated with 100 μL of 10 mM Tris-Base solution. The plates were then read in a microplate reader at an absorbance of 570 nm. Background was generated on a separate plate with media only.
Method for Determining % Inhibition
First, the signals from the background plate are averaged, then the background was subtracted from the test plates.
wherein x denotes the average signal of the compound-treated cells and y denotes the average signal of the DMSO-treated cells.
wherein X denotes the compound concentration 1, Y denotes the compound concentration 2, XX denotes the % inhibition at compound concentration 1 (X), and YY denotes the % inhibition at compound concentration 2 (Y).

T1 sequence (P43490 whole entry): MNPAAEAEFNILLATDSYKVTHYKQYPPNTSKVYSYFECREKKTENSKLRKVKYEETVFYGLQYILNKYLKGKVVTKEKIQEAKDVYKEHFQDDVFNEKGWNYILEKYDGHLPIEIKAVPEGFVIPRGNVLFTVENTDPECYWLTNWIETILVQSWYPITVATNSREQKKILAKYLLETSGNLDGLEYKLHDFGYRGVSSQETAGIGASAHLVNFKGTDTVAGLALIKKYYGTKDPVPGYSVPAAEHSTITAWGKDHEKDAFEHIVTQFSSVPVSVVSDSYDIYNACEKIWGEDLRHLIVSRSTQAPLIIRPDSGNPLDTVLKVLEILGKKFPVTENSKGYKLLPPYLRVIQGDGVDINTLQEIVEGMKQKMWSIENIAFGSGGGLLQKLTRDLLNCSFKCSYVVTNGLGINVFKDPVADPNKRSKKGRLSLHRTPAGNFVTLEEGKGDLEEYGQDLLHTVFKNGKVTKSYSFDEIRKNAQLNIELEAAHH

Structure (SMILES)	IC50 [1] [nM]	IC50 (A2780 cells) [nM]
CC(=O)N1CCC(C(=O)N2CCC(CCCCNC(=O)c3ccc4nccn4c3)CC2)CC1 [N-(4-{1-[(1-acetylpiperidin-4-yl)carbonyl]piperidin-4-yl}butyl)imidazo[1,2-a]pyridine-6-carboxamide]	39.6	27.8
Cn1ccc(S(=O)(=O)N2CCC(CCCCNC(=O)c3cc4cnccc4[nH]3)CC2)n1 [N-{4-[1-(1-methyl-1H-pyrazole-3-sulfonyl)piperidin-4-yl]butyl}-1H-pyrrolo[3,2-c]pyridine-2-carboxamide]	49.5	6.8
Cc1nc(C(=O)N2CCC(CCCCNC(=O)c3cc4cnccc4[nH]3)CC2)cs1 [N-(4-{1-[(2-methyl-1,3-thiazol-4-yl)carbonyl]piperidin-4-yl}butyl)-1H-pyrrolo[3,2-c]pyridine-2-carboxamide]	69.5	25
O=C(NCCCCC1CCN(C(=O)c2csc(-c3cccnc3)n2)CC1)c1ccc2nccn2c1 [N-[4-(1-{[2-(pyridin-3-yl)-1,3-thiazol-4-yl]carbonyl}piperidin-4-yl)butyl]imidazo[1,2-a]pyridine-6-carboxamide]	61.1	67
O=C(NCCCCC1CCN(C(=O)c2cccc(F)c2F)CC1)c1ccc2nccn2c1 [N-(4-{1-[(2,3-difluorophenyl)carbonyl]piperidin-4-yl}butyl)imidazo[1,2-a]pyridine-6-carboxamide]	7.9	10.1
O=C(NCCCCC1CCN(C(=O)c2cccc(Cl)c2)CC1)c1cc2ccncc2s1 [N-(4-{1-[(3-chlorophenyl)carbonyl]piperidin-4-yl}butyl)thieno[2,3-c]pyridine-2-carboxamide]	33.4	45.5
O=C(NCCCCC1CCN(C(=O)c2cccc(F)c2)CC1)c1cc2ccncc2s1 [N-(4-{1-[(3-fluorophenyl)carbonyl]piperidin-4-yl}butyl)thieno[2,3-c]pyridine-2-carboxamide]	7.7	7.4
O=C(NCCCCC1CCN(C(=O)c2ccc(N3CCOCC3)nc2)CC1)c1cc2cnccc2[nH]1 [N-[4-(1-{[6-(morpholin-4-yl)pyridin-3-yl]carbonyl}piperidin-4-yl)butyl]-1H-pyrrolo[3,2-c]pyridine-2-carboxamide]	64.7	3.4
O=C(NCCCCC1CCN(C(=O)c2ccccc2OC(F)(F)F)CC1)c1cc2ccncc2s1 [N-[4-(1-{[2-(trifluoromethoxy)phenyl]carbonyl}piperidin-4-yl)butyl]thieno[2,3-c]pyridine-2-carboxamide]	10.4	3.1
Cc1ccc(F)cc1C(=O)N1CCC(CCCCNC(=O)c2cc3ccncc3s2)CC1 [N-(4-{1-[(5-fluoro-2-methylphenyl)carbonyl]piperidin-4-yl}butyl)thieno[2,3-c]pyridine-2-carboxamide]	4.5	1.8
CCOc1ccccc1C(=O)N1CCC(CCCCNC(=O)c2ccc3nccn3c2)CC1 [N-(4-{1-[(2-ethoxyphenyl)carbonyl]piperidin-4-yl}butyl)imidazo[1,2-a]pyridine-6-carboxamide]	5.2	0.7
O=C(NCCCCC1CCN(C(=O)c2cccc(F)c2F)CC1)c1cc2ccncc2s1 [N-(4-{1-[(2,3-difluorophenyl)carbonyl]piperidin-4-yl}butyl)thieno[2,3-c]pyridine-2-carboxamide]	6.8	4.5
O=C(NCCCCC1CCN(C(=O)c2ccc(OC(F)(F)F)cc2)CC1)c1ccc2nccn2c1 [N-[4-(1-{[4-(trifluoromethoxy)phenyl]carbonyl}piperidin-4-yl)butyl]imidazo[1,2-a]pyridine-6-carboxamide]	91	100 to 1000
COc1ccc(S(=O)(=O)N2CCC(CCCCNC(=O)c3cc4cnccc4[nH]3)CC2)c(OC)c1 [N-(4-{1-[(2,4-dimethoxybenzene)sulfonyl]piperidin-4-yl}butyl)-1H-pyrrolo[3,2-c]pyridine-2-carboxamide]	19.1	1.7
O=C(NCCCCC1CCN(S(=O)(=O)c2ccccc2)CC1)c1cc2cnccc2[nH]1 [N-{4-[1-(benzenesulfonyl)piperidin-4-yl]butyl}-1H-pyrrolo[3,2-c]pyridine-2-carboxamide]	24.9	6.7
O=C(NCCCCC1CCN(C(=O)c2cccc(F)c2F)CC1)c1cc2cnccc2[nH]1 [N-(4-{1-[(2,3-difluorophenyl)carbonyl]piperidin-4-yl}butyl)-1H-pyrrolo[3,2-c]pyridine-2-carboxamide]	12.1	3.4
O=C(NCCCCC1CCN(C(=O)c2ccc(F)c(F)c2)CC1)c1ccc2nccn2c1 [N-(4-{1-[(3,4-difluorophenyl)carbonyl]piperidin-4-yl}butyl)imidazo[1,2-a]pyridine-6-carboxamide]	19	66.2
O=C(NCCCCC1CCN(C(=O)c2cccnc2)CC1)c1cc2ccncc2s1 [N-(4-{1-[(pyridin-3-yl)carbonyl]piperidin-4-yl}butyl)thieno[2,3-c]pyridine-2-carboxamide]	11.1	27.4
COCc1ccc(C(=O)N2CCC(CCCCNC(=O)c3cc4cnccc4[nH]3)CC2)nc1 [N-[4-(1-{[5-(methoxymethyl)pyridin-2-yl]carbonyl}piperidin-4-yl)butyl]-1H-pyrrolo[3,2-c]pyridine-2-carboxamide]	31.1	14.2
O=C(NCCCCC1CCN(C(=O)c2ccc(OC(F)F)cc2)CC1)c1ccc2nccn2c1 [N-[4-(1-{[4-(difluoromethoxy)phenyl]carbonyl}piperidin-4-yl)butyl]imidazo[1,2-a]pyridine-6-carboxamide]	42.7	101
Cc1ncccc1C(=O)N1CCC(CCCCNC(=O)c2cc3cnccc3[nH]2)CC1 [N-(4-{1-[(2-methylpyridin-3-yl)carbonyl]piperidin-4-yl}butyl)-1H-pyrrolo[3,2-c]pyridine-2-carboxamide]	21.5	1.7
O=C(NCCCCC1CCN(C(=O)c2ccc(F)c(F)c2)CC1)c1cc2ccncc2s1 [N-(4-{1-[(3,4-difluorophenyl)carbonyl]piperidin-4-yl}butyl)thieno[2,3-c]pyridine-2-carboxamide]	22.9	100 to 1000
CC(C)c1ccc(C(=O)N2CCC(CCCCNC(=O)c3cc4ccncc4s3)CC2)nc1 [N-[4-(1-{[5-(propan-2-yl)pyridin-2-yl]carbonyl}piperidin-4-yl)butyl]thieno[2,3-c]pyridine-2-carboxamide]	89.8	100 to 1000
Cn1c(C(=O)N2CCC(CCCCNC(=O)c3cc4ccncc4s3)CC2)cc2ccccc21 [N-(4-{1-[(1-methyl-1H-indol-2-yl)carbonyl]piperidin-4-yl}butyl)thieno[2,3-c]pyridine-2-carboxamide]	65	100 to 1000
O=C(NCCCCC1CCN(C(=O)c2cccnc2)CC1)c1cc2cnccc2[nH]1 [N-(4-{1-[(pyridin-3-yl)carbonyl]piperidin-4-yl}butyl)-1H-pyrrolo[3,2-c]pyridine-2-carboxamide]	98.6	23.1
COc1ccc(C(=O)N2CCC(CCCCNC(=O)c3ccc4nccn4c3)CC2)c(OC)c1 [N-(4-{1-[(2,4-dimethoxyphenyl)carbonyl]piperidin-4-yl}butyl)imidazo[1,2-a]pyridine-6-carboxamide]	22.2	3.3
